{"source": "patent US8338434B2", "about": "“Inhibitors of Akt activity” (GlaxoSmithKline LLC, priority 2007, dated 2012)", "target": "T1, full length AKT1 (Homo sapiens, UniProt P31749)", "T1 construct": "His tag (from vector pFastBacHTb; purified on Nickel Sepharose) (N); made in house; host or cells: baculovirus; Sf9 / T. ni insect cells", "T1 sequence (P31749 whole entry)": "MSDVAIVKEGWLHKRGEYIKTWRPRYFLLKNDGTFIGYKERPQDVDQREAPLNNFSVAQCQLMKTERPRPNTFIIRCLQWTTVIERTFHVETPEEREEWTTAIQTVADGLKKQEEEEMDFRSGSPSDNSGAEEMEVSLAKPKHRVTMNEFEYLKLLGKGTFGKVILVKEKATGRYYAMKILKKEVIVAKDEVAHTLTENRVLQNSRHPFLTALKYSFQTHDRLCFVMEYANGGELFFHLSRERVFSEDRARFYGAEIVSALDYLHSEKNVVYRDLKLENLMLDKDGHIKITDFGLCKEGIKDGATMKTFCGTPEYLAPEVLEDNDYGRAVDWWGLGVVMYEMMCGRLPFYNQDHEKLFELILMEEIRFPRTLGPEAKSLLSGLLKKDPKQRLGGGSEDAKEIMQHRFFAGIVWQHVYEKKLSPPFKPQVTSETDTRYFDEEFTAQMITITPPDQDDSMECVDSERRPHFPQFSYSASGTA", "assay": "Full-Length AKT Enzyme Assay (substrate phosphorylation, SPA)", "format": "biochemical", "settings": "in at least one experimental run; pIC50 = -log(IC50), IC50 in molar units; 10 nM activated AKT enzyme, 4 uM ATP, 8 uM peptide; read-out: pIC50 value against full length AKT1 (converted)", "source_text": "Cloning of Full-Length Human (FL) AKT1:\nFull-length human AKT1 gene was amplified by PCR from a plasmid containing myristylated-AKT1-ER (gift from Robert T. Abraham, Duke University under MTA, described in Klippel et al. in Molecular and Cellular Biology 1998 Volume 18 p. 5699) using the 5′ primer: SEQ. ID NO: 2 5′ […] 3′ and the 3′ primer: SEQ. ID NO: 3 […] 3′. The 5′ primer included a BamHI site and the 3′primer included an XhoI site for cloning purposes. The resultant PCR product was subcloned in pcDNA3 as a BamHI/XhoI fragment. A mutation in the sequence (TGC) coding for a Cysteine^25 was converted to the wild-type AKT1 sequence (CGC) coding for an Arginine^25 by site-directed mutagenesis using the QuikChange® Site Directed Mutagenesis Kit (Stratagene). The AKT1 mutagenic primer: SEQ. ID NO: 4 5′ […] and selection primer: SEQ. […] For expression/purification purposes, AKT1 was isolated as a BamHI/XhoI fragment and cloned into the BamHI/XhoI sites of pFastbacHTb (Invitrogen).\nExpression was done using the BAC-to-BAC Baculovirus Expression System from Invitrogen (catalog #10359-016). […]\nCompounds of the present invention were tested for AKT 1, 2, and 3 protein serine kinase inhibitory activity in substrate phosphorylation assays. […] Substrate phosphorylation was detected by the following procedure. […]", "data": [{"smiles": "Cn1nccc1-c1ccc(C(=O)NC(CN)Cc2ccccc2)cn1", "note": "(stereo not shown) [Example 2, N-[2-amino-1-(phenylmethyl)ethyl]-6-(1-methyl-1H-pyrazol-5-yl)-3-pyridinecarboxamide]", "values": [{"measurement": "IC50", "result": 10, "unit": "nM"}]}]}
